Measured values published in publication PMC10485906, “Development of a Dihydroquinoline–Pyrazoline GluN2C/2D-Selective Negative Allosteric Modulator of the N-Methyl-D-aspartate Receptor” (ACS Chemical Neuroscience, 2023).

What was measured:
GluN1/GluN2A = target: T1, GluN1/GluN2A (Rattus norvegicus, UniProt Q00959); set-up: method as in PMID 23909910; conditions: reproduced for comparison; cited from earlier work
T1 construct: expressed in transfected cells; host or cells: Xenopus laevis oocytes (cRNA injection)
T1 sequence (Q00959 23-1464, other chains not shown): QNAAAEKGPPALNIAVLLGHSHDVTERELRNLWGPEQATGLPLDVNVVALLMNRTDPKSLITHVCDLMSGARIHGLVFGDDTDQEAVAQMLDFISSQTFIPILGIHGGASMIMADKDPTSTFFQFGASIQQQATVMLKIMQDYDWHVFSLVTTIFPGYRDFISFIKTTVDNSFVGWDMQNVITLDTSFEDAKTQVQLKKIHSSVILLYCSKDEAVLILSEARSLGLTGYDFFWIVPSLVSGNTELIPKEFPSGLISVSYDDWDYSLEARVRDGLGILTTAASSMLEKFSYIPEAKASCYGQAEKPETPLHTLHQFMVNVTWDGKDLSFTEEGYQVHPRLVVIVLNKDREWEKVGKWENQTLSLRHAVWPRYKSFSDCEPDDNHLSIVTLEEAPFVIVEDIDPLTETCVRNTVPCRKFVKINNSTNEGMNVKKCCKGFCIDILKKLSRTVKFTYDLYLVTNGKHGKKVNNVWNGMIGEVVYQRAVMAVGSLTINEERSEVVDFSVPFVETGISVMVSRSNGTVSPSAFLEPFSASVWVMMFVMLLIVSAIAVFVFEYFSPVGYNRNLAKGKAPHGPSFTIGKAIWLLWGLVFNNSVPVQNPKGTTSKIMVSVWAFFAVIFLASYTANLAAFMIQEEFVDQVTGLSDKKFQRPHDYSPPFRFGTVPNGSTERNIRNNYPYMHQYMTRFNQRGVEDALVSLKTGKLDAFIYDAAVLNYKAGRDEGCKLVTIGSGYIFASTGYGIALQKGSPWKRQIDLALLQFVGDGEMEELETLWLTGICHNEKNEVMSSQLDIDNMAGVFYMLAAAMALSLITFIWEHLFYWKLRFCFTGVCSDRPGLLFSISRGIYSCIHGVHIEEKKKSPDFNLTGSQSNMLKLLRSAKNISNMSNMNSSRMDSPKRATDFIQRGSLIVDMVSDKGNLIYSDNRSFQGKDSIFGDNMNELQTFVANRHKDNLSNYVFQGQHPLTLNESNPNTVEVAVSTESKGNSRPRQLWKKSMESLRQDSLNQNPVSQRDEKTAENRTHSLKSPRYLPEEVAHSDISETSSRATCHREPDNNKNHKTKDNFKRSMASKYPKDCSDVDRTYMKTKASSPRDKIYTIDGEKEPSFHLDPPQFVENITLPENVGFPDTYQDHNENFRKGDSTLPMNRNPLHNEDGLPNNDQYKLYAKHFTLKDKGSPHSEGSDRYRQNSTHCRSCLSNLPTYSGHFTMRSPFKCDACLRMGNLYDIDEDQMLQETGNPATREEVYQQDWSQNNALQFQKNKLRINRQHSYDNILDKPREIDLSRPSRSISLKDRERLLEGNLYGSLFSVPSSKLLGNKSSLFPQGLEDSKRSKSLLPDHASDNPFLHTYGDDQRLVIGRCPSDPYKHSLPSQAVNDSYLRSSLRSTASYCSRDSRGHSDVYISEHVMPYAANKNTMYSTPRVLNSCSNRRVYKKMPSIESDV

42-nACh = 42-nACh (Rattus norvegicus, UniProt P09483+P12390); test: Off-target, oocytes, nicotinic acetylcholine 42; type: cell-based; conditions: 1 µM compound; 10 µM acetylcholine
42-nACh, sequence (P09483 31-630): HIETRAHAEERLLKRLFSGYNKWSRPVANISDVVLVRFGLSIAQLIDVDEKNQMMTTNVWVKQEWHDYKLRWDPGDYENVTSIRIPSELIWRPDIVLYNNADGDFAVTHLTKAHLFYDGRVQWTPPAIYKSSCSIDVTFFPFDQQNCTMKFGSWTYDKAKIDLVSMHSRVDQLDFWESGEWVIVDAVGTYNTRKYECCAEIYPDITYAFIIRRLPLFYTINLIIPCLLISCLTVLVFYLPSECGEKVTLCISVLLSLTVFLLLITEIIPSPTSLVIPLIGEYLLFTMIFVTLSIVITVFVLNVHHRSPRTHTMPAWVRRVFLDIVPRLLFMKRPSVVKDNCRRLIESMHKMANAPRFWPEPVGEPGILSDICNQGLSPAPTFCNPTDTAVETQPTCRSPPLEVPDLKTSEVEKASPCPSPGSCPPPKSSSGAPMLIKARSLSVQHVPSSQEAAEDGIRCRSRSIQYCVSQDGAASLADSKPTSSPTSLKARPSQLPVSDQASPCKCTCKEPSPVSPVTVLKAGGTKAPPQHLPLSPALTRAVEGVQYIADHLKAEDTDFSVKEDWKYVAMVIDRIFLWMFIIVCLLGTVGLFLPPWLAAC
42-nACh, sequence (P12390 25-500): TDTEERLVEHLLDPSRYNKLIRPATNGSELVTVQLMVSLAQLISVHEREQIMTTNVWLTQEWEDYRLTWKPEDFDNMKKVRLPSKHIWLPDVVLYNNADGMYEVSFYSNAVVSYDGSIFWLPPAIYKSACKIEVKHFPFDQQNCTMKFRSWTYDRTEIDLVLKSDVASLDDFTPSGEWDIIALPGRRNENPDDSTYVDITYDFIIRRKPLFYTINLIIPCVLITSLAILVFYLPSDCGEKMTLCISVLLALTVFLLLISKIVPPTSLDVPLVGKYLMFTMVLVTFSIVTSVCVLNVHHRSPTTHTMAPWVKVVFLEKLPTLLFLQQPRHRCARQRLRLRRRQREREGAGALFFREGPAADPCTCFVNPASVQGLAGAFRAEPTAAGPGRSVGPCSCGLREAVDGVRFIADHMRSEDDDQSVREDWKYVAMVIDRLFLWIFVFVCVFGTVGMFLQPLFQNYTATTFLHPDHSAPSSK
Description: (§1) Analysis of Off-target Actions
(§2) Compound (S)-(-)-2i was tested at 1 µM for actions at glycine-activated GluN1/GluN3A (human GluN1-F484A,T518L/GluN3A referred to a GluN1-FA,TL/GluN3A) and rat GluN1-4a/GluN3B in the presence of 0.5 µM CGP-78608. cRNA injection ratios for GluN1/GluN3 were 1:2. Compound (S)-(-)- 2i was also tested for actions at AMPA (rat GluA1, rat GluA2, human GluA3-L531Y), kainate (rat GluK2), nicotinic acetylcholine (rat α7 and α4β2, cRNA ratio 1:1), GABAA (rat α1β2γ2S, cRNA ratio 1:1:1), GABAC (rat ρ1), glycine (rat α1), and purinergic (human P2X) receptors expressed in Xenopus oocytes. cRNA encoding the receptor subunits was synthesized from linear template cDNA using the mMessage mMachine kit (Ambion). Oocytes were injected with 1-5 ng cRNA in a 50 nL volume and incubated in Barth's solution at 15°C for 2-5 days prior to recording. GluK2-expressing oocyte were incubated in 1 mg/ml (10 µM) concanavalin-A for 10 min prior to recording. The cDNAs encoding GABAC and glycine subunits were provided by Dr. D. Weiss (University of Texas Health Science Center at San Antonio). cDNAs encoding nicotinic acetylcholine receptor subunits were provided by Drs. […]
(§3) GABA. […] Responses in presence of test compound were expressed as a percent of control. […]

hP2x = test: Off-target, oocytes, purinergic receptor; type: cell-based, human; conditions: 1 µM compound; 9 µM ATP
Description: as §1, §2, §3

Compound	I 30 μM / I control GluN2A (GluN1/GluN2A)	% control 42-nACh (42-nACh)	% control hP2x (hP2x)
O=C(O)CCC(=O)N1N=C(c2c(-c3ccc(Cl)cc3)c3ccccc3[nH]c2=O)CC1c1ccc(Cl)cc1 (stereo not drawn) [2a]	37 ± 4.6 (2,10) %		
O=C(O)CC(F)(F)C(=O)N1N=C(c2c(-c3ccc(Cl)cc3)c3ccccc3[nH]c2=O)C[C@H]1c1ccc(Cl)cc1 [(S)-(−)-2i]		91 ± 2.1%	108 ± 0.53%
